Test [1] deals with T1, hTRPM8 (Homo sapiens, UniProt Q7Z2W7).
T1 construct: expressed in transfected cells
Description: hTRPM8 cell line agonist assay (section 2.1). It counts as cell-based. As to conditions: for EC50: cell line stably expressing hTRPM8; for EC50 Ratio (WS3): relative to WS3 screened on the same day, greater than one = more potent than WS3. On the procedure:
A cell line which stably expresses hTRPM8 was used in biological assays in association with testing the present compounds with cool-tasting or -feeling properties. Typical compound concentrations tested were 100 μM, 50 μM, 10 μM, 1 μM, and 0.5 μM. The present compounds have shown activity as agonists of hTRPM8. Assay results for compounds are illustrated in the table below. EC50 in micromoles (μM) is presented as well as the activity relative to WS3 (an established, commercially available cooling agent). […] A value of 1 indicates the compound is equipotent to WS3 in the assay. […] It is noted that Compounds 2.A1 to 2.S6 in the table below are the Examples described in this application. For example, Compound 2.B 1 is Example 2.2.

Test [2] has as its system panelists. Briefly: Sensory studies, cool line scale vs WS-3 (section 2.2). It is filed as in vivo, human. To be noted: compound concentration compared in cooling with a known concentration of WS-3. An excerpt:
The results are presented relative to a known concentration of WS-3. A more specific detailed example of the sensory evaluation of selected examples are also presented below. […]

For test [3], the system named is panelists. Description: Sensory study, cooling line scale vs WS-3 (section 1.2). As to conditions: 5 μM. It counts as in vivo, human. On the procedure:
Three typical sensory studies are described below each followed by a table summarizing sensory results of selected compounds of the invention (Tables 1.2 to 1.4).
(§1) All samples made with Low Sodium Buffer (LSB) pH ˜7.1 and contain 0.1% ethanol.
(§2) Compounds are rated on a 15 point line scale where 45 μM WS-3 (N-Ethyl-p-menthane-3-carboxamide) is ranked as a 5 in cool intensity. In most cases our compounds are tested to determine at what concentration the cooling intensity is equivalent to 45 μM WS-3. In each test, the panelist is presented with a 0 μM control sample, a 45 μM WS-3 control sample and the experimental compound sample and asked to rate the cooling intensity of each sample. Panelists are also asked to rate bitterness. In the table below there was no significant bitterness detected unless otherwise noted. Also, in the table below, n represents the number of tests completed for a given experiment (#panelists×#repetitions).

Test [4] has as its system panelists. Briefly: Sensory study, cool line scale test vs WS-3 (section 3.2). It counts as in vivo, human. As to conditions: 5 μM. On the procedure:
Two typical sensory studies are described below each followed by a table summarizing sensory results of selected compounds of the invention (Tables 3.2 and 3.3).
as §1
as §2, with “The test is a cool line scale test with timed 30 seconds interval. Compounds” for “Compounds”, “intensity. The present compound was” for “intensity. In most cases our compounds are”, “panelist was” for “panelist is”, “Panelists were” for “Panelists are”

Test [5] concerns the target T1, hTRPM8. Description: hTRPM8 cell based agonist assay (section 3.1). As to conditions: for EC50: mammalian cell line stably expressing TRPM8; for EC50 Ratio (WS3): relative to WS3. An excerpt:
The present compounds are useful as modulators of TRPM8. The activity of TRPM8 can be readily monitored in cell based assays using fluorescent calcium-sensitive dyes, membrane potential dyes, or sodium-sensitive dyes. The activity of TRPM8 can also be monitored with electrophysiological set-ups, such as patch-clamping and two-electrode voltage clamping. A mammalian cell line derivative which stably expresses TRPM8 was used in biological assays in association with testing the present compounds with cool-tasting or -feeling properties (Servant et al. US 2007/0259354 A1 and references cited therein). Typical compound concentrations tested were 50 μM, 20 μM, 10 μM, 5 μM, 2 μM, 1 μM, 0.5 μM, 0.1 μM, 0.05 μM, 0.01 μM, and other concentration points in between. The present compounds have shown strong activity as agonists of hTRPM8. Assay results for compounds are illustrated in Table 1 below. Specifically, the Compounds listed in Table 3.1, i.e., Compounds 3.A1 to Compounds 3.D1 are the specific compounds as described above.

Usually EC50 stands for the midpoint of the concentration-response curve.

T1 sequence (Q7Z2W7 whole entry): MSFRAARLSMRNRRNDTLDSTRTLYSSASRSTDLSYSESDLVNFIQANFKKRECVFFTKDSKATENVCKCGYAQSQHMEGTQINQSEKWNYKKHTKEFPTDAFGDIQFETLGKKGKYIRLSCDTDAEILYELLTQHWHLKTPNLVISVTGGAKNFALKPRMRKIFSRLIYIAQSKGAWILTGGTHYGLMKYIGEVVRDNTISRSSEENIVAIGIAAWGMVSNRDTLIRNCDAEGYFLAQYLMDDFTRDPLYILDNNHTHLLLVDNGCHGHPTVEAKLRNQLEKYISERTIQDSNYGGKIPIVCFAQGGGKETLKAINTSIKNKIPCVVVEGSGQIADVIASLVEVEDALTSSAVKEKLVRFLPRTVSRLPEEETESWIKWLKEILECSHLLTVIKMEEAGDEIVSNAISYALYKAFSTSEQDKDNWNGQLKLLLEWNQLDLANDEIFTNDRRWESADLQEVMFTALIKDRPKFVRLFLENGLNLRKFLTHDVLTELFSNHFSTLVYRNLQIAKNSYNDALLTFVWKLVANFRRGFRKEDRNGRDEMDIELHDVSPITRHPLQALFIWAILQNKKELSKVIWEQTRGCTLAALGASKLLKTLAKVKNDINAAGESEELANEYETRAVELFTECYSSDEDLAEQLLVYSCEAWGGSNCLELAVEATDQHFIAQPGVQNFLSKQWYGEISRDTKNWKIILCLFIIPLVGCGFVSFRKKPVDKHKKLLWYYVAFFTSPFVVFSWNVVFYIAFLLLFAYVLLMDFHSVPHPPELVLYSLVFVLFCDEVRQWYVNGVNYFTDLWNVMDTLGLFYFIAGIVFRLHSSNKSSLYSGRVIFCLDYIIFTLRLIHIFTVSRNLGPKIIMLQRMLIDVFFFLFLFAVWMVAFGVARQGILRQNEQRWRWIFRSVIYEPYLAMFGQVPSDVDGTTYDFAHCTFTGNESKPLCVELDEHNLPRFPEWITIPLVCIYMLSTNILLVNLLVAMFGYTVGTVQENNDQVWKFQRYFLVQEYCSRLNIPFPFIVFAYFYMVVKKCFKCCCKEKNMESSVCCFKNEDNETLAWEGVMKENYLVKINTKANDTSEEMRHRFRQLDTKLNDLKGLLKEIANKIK

With `CN1C(=O)N(CC(=O)c2ccccc2)C(=O)C(C)(C2=CCCCC2)C1=O` (stereo not shown) [Compound 2.M3], in test [1], a half-maximal response (EC50) required 192 nM and the “EC50 Ratio (WS3)” value is given as 240.6.

On to `CN1CC(C)(C2=CCCCC2)C(=O)N(CC(=O)c2ccccc2)C1=O` (stereo not shown) [Compound 2.A1], for which the “Sensory Results” value in test [2] was determined as 10 uM < 45 uM WS-3. In addition, in test [1], the midpoint of the response, the EC50, lay at 135 nM and the “EC50 Ratio (WS3)” value came out at 54.6.

Take `CC1=NN(CC(=O)c2ccccc2)C(=O)C1(C)C1CCCCC1` (stereo not shown) [Example A1]: in test [3], the “Cooling compared with 0 μM and 45 μM WS-3 (panel conclusion)” value is “significantly more cooling than 0 μM WS-3 (p<0.05) and not significantly different in cooling than 45 μM WS-3”.

Turning to `CC1CCCC1C1(C)C(=O)N(CC(=O)c2ccc[nH]2)C(=O)N1C` (stereo not shown) [Compound 2.N3], in test [2], the “Sensory Results” value was determined as 15 uM < 45 uM WS-3. For the same molecule, in test [1], the EC50 was 205 nM and the “EC50 Ratio (WS3)” value was 24.1.

As to `C[C@H](C(=O)N(C)CC(=O)c1ccccc1)C1CCCCC1` [Example 3.2, (S)-2-Cyclohexyl-N-methyl-N-(2-oxo-2-phenylethyl)propanamide], the “Cooling compared with 0 μM and 45 μM WS-3 (panel conclusion)” value in test [4] was “significantly more cooling than 0 μM WS-3 (p<0.05) and not significantly different in cooling than 45 μM WS-3”. For the same molecule, in test [4] (Table 3.2, 15 point line scale, n = 30), the “Average Cooling” value is on record as 4.0.

For the molecule `CC(C)(C(=O)NCC(=O)c1cccnc1)C1CCCCC1` [Example 3.B4], in test [5], the concentration giving a half-maximal response (EC50) came out at 230 nM and the “EC50 Ratio (WS3)” value was determined as 26.5.

With `CN1C(=O)N(CC(=O)c2cccc(O)c2)C(=O)C1(C)C1CC2CCC1C2` (single isomer, unassigned) [Compound 2.B3], the “EC50 Ratio (WS3)” value in test [1] was 2810.1.

Consider `CC(C(=O)N(C)CC(=O)c1ccccc1)c1ccccc1` (stereo not shown) [Example 3.D6], for which, in test [5], a half-maximal effect (EC50) was put at 2350 nM and the “EC50 Ratio (WS3)” value worked out at 3.9.

As for `CN1C(=O)N(CC(=O)c2ccccc2)C(=O)C1(C)C1CC2C=CC1CC2` (stereo not shown) [Compound 2.E3], in test [1], the EC50 came to 127 nM and the “EC50 Ratio (WS3)” value came out at 53.5.

In the case of `CCN1C(=O)N(CC(=O)c2ccccc2)C(=O)C1(C)C1CCCCC1` (stereo not shown) [Compound 2.P3], the “Sensory Results” value in test [2] turned out to be 15 uM < 45 uM WS-3. Moreover, in test [1], the 50% effective concentration (EC50) amounted to 230 nM and the “EC50 Ratio (WS3)” value was 38.1.

On to `C[C@H](C(=O)N(C)CC(=O)c1ccsc1)C1CCCCC1` [Example 3.A4], for which, in test [5], a half-maximal response (EC50) required 41 nM and the “EC50 Ratio (WS3)” value is given as 132.4.

With `CC(C(=O)N(C)CC(=O)c1cc(O)cc(O)c1)C1CCCCC1` (stereo not shown) [Example 3.A3], in test [5], the EC50 is 28 nM and the “EC50 Ratio (WS3)” value is given as 221.2.

As to `CC(C)(C(=O)NCC(O)c1ccccc1)C1CCCCC1` (stereo not shown) [Example 3.F8], in test [5], the 50% effective concentration (EC50) amounted to 4170 nM and the “EC50 Ratio (WS3)” value is 1.1.

Turning to `CC(C(=O)N(C)CC(=O)c1cccs1)C1CCCCC1` (stereo not shown) [Example 3.A10], in test [5], the EC50 turned out to be 59 nM and the “EC50 Ratio (WS3)” value is given as 62.5.

Take `CC(C)(C(=O)NCC(=O)c1ccc(O)cc1)C1CCCCC1` [Example 3.C5]: in test [5], the concentration for a half-maximal effect (EC50) came out at 504 nM and the “EC50 Ratio (WS3)” value worked out at 9.4.

On to `Cc1cccc(C(C)C(=O)N(C)CC(=O)c2ccccc2)c1` (stereo not shown) [Example 3.E6], for which, in test [5], the EC50 was 4470 nM and the “EC50 Ratio (WS3)” value was determined as 2.5.

Take `CC(C(=O)NCC(=O)c1ccccc1)C1CC2CCC1C2` (stereo not shown) [Example 3.F9]: in test [5], the EC50 came out at 3390 nM and the “EC50 Ratio (WS3)” value was determined as 1.0.

With `CN1C(=O)N(CC(=O)c2cccnc2)C(=O)C1(C)CCc1ccccc1` (stereo not shown) [Compound 2.U5], in test [1], the response was half-maximal at 3720 nM (EC50) and the “EC50 Ratio (WS3)” value is given as 0.9.

The record behind these values is patent US11028052B2, “Compounds useful as modulators of TRPM8” (Firmenich Incorporated, priority 2013, dated 2021).
